Data as given in patent US8362031B2, “Lonidamine analogues and treatment of polycystic kidney disease” (University of Kansas, priority 2004, dated 2013).
“Also recorded” adds a separate entry of the source.

system: rats; experiment: Toxicology: organs sectioned and examined after dosing; format: in vivo; details: 25 mg/kg, two animals examined, findings per animal
Procedure: In at least two of the animals in each group, the pancreas, right kidney and part of the liver, heart, spleen, and lung were removed and evaluated for toxic effects.
The toxicology of animals receiving some of the compounds of the present invention IP and/or oral was examined. At the time of sacrifice samples of liver, pancreas, heart, lung, spleen and kidney were removed, visually inspected, and immersion fixed in Bouin's solution for a minimum of 48 hours. All organs were then sectioned and examined for evidence of necrosis, inflammation, hemorrhage, and possible tumors. The major veins in each tissue were also examined for distention, especially in the liver and pancreas, and any other abnormalities are compared to known histopathological states. In addition to the above, the heart was examined for evidence of fibrosis in the muscular walls, and to compare the thickness of the ventricular walls. The pancreas was examined mainly for calcium deposits, while the lung was checked for signs of any exudates or hemorrhage, especially in the alveolar spaces. Finally, the kidney was examined mainly for microscopic hemorrhages, tubular necrosis or alterations in the glomeruli in the cortex.
In this example, the effects of RC-MC-30 were compared with those of lonidamine in sexually mature rats. As discussed above, each of the rats (8 total) received a single injection and were sacrificed five days after injection and examined.

Row | Compound | Toxicology: liver, lung, pancreas, spleen, heart and kidney (histology)
1 | O=C(O)c1nn(Cc2ccc(Cl)cc2Cl)c2cccnc12 [JWS-1-114, 1-(2,4-dichlorobenzyl)-1H-pyrazolo[4,3-b]pyridine-3-carboxylic acid] | liver, lung, pancreas, spleen, heart and kidney that appeared within normal limits
2 | COc1ccc2c(n1)c(C(=O)NN)nn2Cc1ccc(Cl)cc1Cl [JWS-1-146, 1-(2,4-dichlorobenzyl)-5-methoxy-1H-pyrazolo[4,3-b]pyridine-3-carboxylic acid hydrazide] | liver, lung, pancreas, spleen, heart and kidney that appeared within normal limits
3 | COC(=O)c1nn(Cc2ccc(Cl)cc2Cl)c2cnccc12 [JWS-1-130, 1-(2,4-dichlorobenzyl)-1H-pyrazolo[3,4-c]pyridine-3-carboxylic acid methyl ester] | The liver appeared to have distended veins throughout, but no other abnormalities were noted; also recorded: The liver did have distended veins throughout, with small scattered patches of necrosis, usually located around the periportal areas
4 | COC(=O)c1nn(Cc2ccc(Cl)cc2Cl)c2cccnc12 [JWS-1-110] | The spleen had distended veins and necrosis in the white pulp; also recorded: The liver had distended portal veins with surrounding small patches of hepatic necrosis; also recorded: The lung contained scattered hemorrhagic areas around the alveoli and terminal bronchioles; also recorded: the spleen had distended veins and diminished amounts of white pulp containing necrotic cells

same assay, conditions: 200 mg/kg, two animals examined, findings per animal

Row | Compound | Toxicology: liver, lung, pancreas, spleen, heart and kidney (histology)
5 | O=C(O)c1nn(Cc2ccc(Cl)cc2Cl)c2cccnc12 [JWS-1-114, 1-(2,4-dichlorobenzyl)-1H-pyrazolo[4,3-b]pyridine-3-carboxylic acid] | The lung had massive pulmonary hemorrhaging around the bronchioles; also recorded: The liver had moderate sized (5-10 cell in diameter) necrotic patches generally in the periportal areas; also recorded: liver, lung, pancreas, spleen, heart and kidney that appeared within normal limits
6 | COC(=O)c1nn(Cc2ccc(Cl)cc2Cl)c2cnccc12 [JWS-1-130, 1-(2,4-dichlorobenzyl)-1H-pyrazolo[3,4-c]pyridine-3-carboxylic acid methyl ester] | liver, lung, pancreas, spleen, heart and kidney all appeared within normal limits; also recorded: The liver did have distended veins throughout, with small scattered patches of necrosis, usually located around the periportal areas
7 | COC(=O)c1nn(Cc2ccc(Cl)cc2Cl)c2cccnc12 [JWS-1-110] | The liver showed distended portal veins with scattered, small patches of necrosis; also recorded: The lung contained multiple hemorrhagic areas throughout the alveoli, and terminal and respiratory bronchioles; also recorded: the spleen demonstrated distended veins, and diminished white pulp with necrotic cells; also recorded: The liver had distended veins, with scattered, small patches of necrosis throughout; also recorded: The pancreas had distended veins, but no other noticeable abnormalities

system: Male Long Evans rats; experiment: In vivo antispermatogenic testing in Long Evans rats; details: 25 mg/kg single i.p. injection; […]

Row | Compound | Mortality (25 mg/kg)
8 | O=C(O)c1nn(Cc2ccc(Cl)cc2Cl)c2cccnc12 [JWS-1-114, 1-(2,4-dichlorobenzyl)-1H-pyrazolo[4,3-b]pyridine-3-carboxylic acid] | 0/5
9 | COc1ccc2c(n1)c(C(=O)NN)nn2Cc1ccc(Cl)cc1Cl [JWS-1-146, 1-(2,4-dichlorobenzyl)-5-methoxy-1H-pyrazolo[4,3-b]pyridine-3-carboxylic acid hydrazide] | 0/5
10 | COC(=O)c1nn(Cc2ccc(Cl)cc2Cl)c2cnccc12 [JWS-1-130, 1-(2,4-dichlorobenzyl)-1H-pyrazolo[3,4-c]pyridine-3-carboxylic acid methyl ester] | 0/5
11 | COC(=O)c1nn(Cc2ccc(Cl)cc2Cl)c2cccnc12 [JWS-1-110] | 0/5

same assay, conditions: 25 mg/kg single i.p. injection; animals responding out of animals surviving; five days following injection

Row | Compound | Response 25 mg/kg
12 | O=C(O)c1nn(Cc2ccc(Cl)cc2Cl)c2cccnc12 [JWS-1-114, 1-(2,4-dichlorobenzyl)-1H-pyrazolo[4,3-b]pyridine-3-carboxylic acid] | 1/5
13 | COc1ccc2c(n1)c(C(=O)NN)nn2Cc1ccc(Cl)cc1Cl [JWS-1-146, 1-(2,4-dichlorobenzyl)-5-methoxy-1H-pyrazolo[4,3-b]pyridine-3-carboxylic acid hydrazide] | 0/5
14 | COC(=O)c1nn(Cc2ccc(Cl)cc2Cl)c2cnccc12 [JWS-1-130, 1-(2,4-dichlorobenzyl)-1H-pyrazolo[3,4-c]pyridine-3-carboxylic acid methyl ester] | 0/5
15 | COC(=O)c1nn(Cc2ccc(Cl)cc2Cl)c2cccnc12 [JWS-1-110] | 0/5

same assay, conditions: 200 mg/kg single i.p. injection; […]

Row | Compound | Mortality (200 mg/kg)
16 | O=C(O)c1nn(Cc2ccc(Cl)cc2Cl)c2cccnc12 [JWS-1-114, 1-(2,4-dichlorobenzyl)-1H-pyrazolo[4,3-b]pyridine-3-carboxylic acid] | 0/5
17 | COC(=O)c1nn(Cc2ccc(Cl)cc2Cl)c2cnccc12 [JWS-1-130, 1-(2,4-dichlorobenzyl)-1H-pyrazolo[3,4-c]pyridine-3-carboxylic acid methyl ester] | 0/5
18 | COC(=O)c1nn(Cc2ccc(Cl)cc2Cl)c2cccnc12 [JWS-1-110] | 0/5

same assay, conditions: 200 mg/kg single i.p. injection; animals responding out of animals surviving; five days following injection

Row | Compound | Response 200 mg/kg
19 | O=C(O)c1nn(Cc2ccc(Cl)cc2Cl)c2cccnc12 [JWS-1-114, 1-(2,4-dichlorobenzyl)-1H-pyrazolo[4,3-b]pyridine-3-carboxylic acid] | 0/5
20 | COC(=O)c1nn(Cc2ccc(Cl)cc2Cl)c2cnccc12 [JWS-1-130, 1-(2,4-dichlorobenzyl)-1H-pyrazolo[3,4-c]pyridine-3-carboxylic acid methyl ester] | 0/5
21 | COC(=O)c1nn(Cc2ccc(Cl)cc2Cl)c2cccnc12 [JWS-1-110] | 0/5

system: Salmonella Typhimurium TA 100; experiment: Ames test for mutagenicity (plate assay, colony count); details: (+)S9 mix, 0.1 mg/pl., 48 hours at 37° C.

Row | Compound | Ames test (+)S9 0.1 mg/pl.
22 | O=C(O)c1nn(Cc2ccc(Cl)cc2Cl)c2cccnc12 [JWS-1-114, 1-(2,4-dichlorobenzyl)-1H-pyrazolo[4,3-b]pyridine-3-carboxylic acid] | Pass
23 | COc1ccc2c(n1)c(C(=O)NN)nn2Cc1ccc(Cl)cc1Cl [JWS-1-146, 1-(2,4-dichlorobenzyl)-5-methoxy-1H-pyrazolo[4,3-b]pyridine-3-carboxylic acid hydrazide] | Pass
24 | COC(=O)c1nn(Cc2ccc(Cl)cc2Cl)c2cnccc12 [JWS-1-130, 1-(2,4-dichlorobenzyl)-1H-pyrazolo[3,4-c]pyridine-3-carboxylic acid methyl ester] | Pass
25 | COC(=O)c1nn(Cc2ccc(Cl)cc2Cl)c2cccnc12 [JWS-1-110] | Pass

same assay, conditions: (+)S9 mix, 1 mg/pl., 48 hours at 37° C.

Row | Compound | Ames test (+)S9 1 mg/pl.
26 | O=C(O)c1nn(Cc2ccc(Cl)cc2Cl)c2cccnc12 [JWS-1-114, 1-(2,4-dichlorobenzyl)-1H-pyrazolo[4,3-b]pyridine-3-carboxylic acid] | Pass
27 | COc1ccc2c(n1)c(C(=O)NN)nn2Cc1ccc(Cl)cc1Cl [JWS-1-146, 1-(2,4-dichlorobenzyl)-5-methoxy-1H-pyrazolo[4,3-b]pyridine-3-carboxylic acid hydrazide] | Pass
28 | COC(=O)c1nn(Cc2ccc(Cl)cc2Cl)c2cnccc12 [JWS-1-130, 1-(2,4-dichlorobenzyl)-1H-pyrazolo[3,4-c]pyridine-3-carboxylic acid methyl ester] | Pass
29 | COC(=O)c1nn(Cc2ccc(Cl)cc2Cl)c2cccnc12 [JWS-1-110] | Pass

same assay, conditions: (+)S9 mix, 10 mg/pl., 48 hours at 37° C.

Row | Compound | Ames test (+)S9 10 mg/pl.
30 | O=C(O)c1nn(Cc2ccc(Cl)cc2Cl)c2cccnc12 [JWS-1-114, 1-(2,4-dichlorobenzyl)-1H-pyrazolo[4,3-b]pyridine-3-carboxylic acid] | Pass
31 | COc1ccc2c(n1)c(C(=O)NN)nn2Cc1ccc(Cl)cc1Cl [JWS-1-146, 1-(2,4-dichlorobenzyl)-5-methoxy-1H-pyrazolo[4,3-b]pyridine-3-carboxylic acid hydrazide] | Pass
32 | COC(=O)c1nn(Cc2ccc(Cl)cc2Cl)c2cnccc12 [JWS-1-130, 1-(2,4-dichlorobenzyl)-1H-pyrazolo[3,4-c]pyridine-3-carboxylic acid methyl ester] | Pass
33 | COC(=O)c1nn(Cc2ccc(Cl)cc2Cl)c2cccnc12 [JWS-1-110] | Pass

same assay, conditions: (−)S9 mix, 0.1 mg/pl., 48 hours at 37° C.

Row | Compound | Ames test (−)S9 0.1 mg/pl.
34 | O=C(O)c1nn(Cc2ccc(Cl)cc2Cl)c2cccnc12 [JWS-1-114, 1-(2,4-dichlorobenzyl)-1H-pyrazolo[4,3-b]pyridine-3-carboxylic acid] | Pass
35 | COc1ccc2c(n1)c(C(=O)NN)nn2Cc1ccc(Cl)cc1Cl [JWS-1-146, 1-(2,4-dichlorobenzyl)-5-methoxy-1H-pyrazolo[4,3-b]pyridine-3-carboxylic acid hydrazide] | Pass
36 | COC(=O)c1nn(Cc2ccc(Cl)cc2Cl)c2cnccc12 [JWS-1-130, 1-(2,4-dichlorobenzyl)-1H-pyrazolo[3,4-c]pyridine-3-carboxylic acid methyl ester] | Pass
37 | COC(=O)c1nn(Cc2ccc(Cl)cc2Cl)c2cccnc12 [JWS-1-110] | Pass

same assay, conditions: (−)S9 mix, 1 mg/pl., 48 hours at 37° C.

Row | Compound | Ames test (−)S9 1 mg/pl.
38 | O=C(O)c1nn(Cc2ccc(Cl)cc2Cl)c2cccnc12 [JWS-1-114, 1-(2,4-dichlorobenzyl)-1H-pyrazolo[4,3-b]pyridine-3-carboxylic acid] | Pass
39 | COc1ccc2c(n1)c(C(=O)NN)nn2Cc1ccc(Cl)cc1Cl [JWS-1-146, 1-(2,4-dichlorobenzyl)-5-methoxy-1H-pyrazolo[4,3-b]pyridine-3-carboxylic acid hydrazide] | Pass
40 | COC(=O)c1nn(Cc2ccc(Cl)cc2Cl)c2cnccc12 [JWS-1-130, 1-(2,4-dichlorobenzyl)-1H-pyrazolo[3,4-c]pyridine-3-carboxylic acid methyl ester] | Pass
41 | COC(=O)c1nn(Cc2ccc(Cl)cc2Cl)c2cccnc12 [JWS-1-110] | Pass

same assay, conditions: (−)S9 mix, 10 mg/pl., 48 hours at 37° C.

Row | Compound | Ames test (−)S9 10 mg/pl.
42 | O=C(O)c1nn(Cc2ccc(Cl)cc2Cl)c2cccnc12 [JWS-1-114, 1-(2,4-dichlorobenzyl)-1H-pyrazolo[4,3-b]pyridine-3-carboxylic acid] | Pass
43 | COc1ccc2c(n1)c(C(=O)NN)nn2Cc1ccc(Cl)cc1Cl [JWS-1-146, 1-(2,4-dichlorobenzyl)-5-methoxy-1H-pyrazolo[4,3-b]pyridine-3-carboxylic acid hydrazide] | Pass
44 | COC(=O)c1nn(Cc2ccc(Cl)cc2Cl)c2cnccc12 [JWS-1-130, 1-(2,4-dichlorobenzyl)-1H-pyrazolo[3,4-c]pyridine-3-carboxylic acid methyl ester] | Pass
45 | COC(=O)c1nn(Cc2ccc(Cl)cc2Cl)c2cccnc12 [JWS-1-110] | Pass
